For orientation: IC50 means the midpoint of a concentration-inhibition curve. As usually defined, the CC50 is the concentration giving 50% cytotoxicity. Read a high CC50 as better tolerance by the cells.

This note sets out measurements from patent US11040963B2 (priority 2017, dated 2021).

For data set [1], the target named is HA H1 A/California/07/09 (Influenza A virus (A/California/07/2009(H1N1)), UniProt C3W5X2). The data set can be described thus: biochemical. The following applies: Competition binding (AlphaLISA), pIC50 H1 A/California/07/09.
For data set [2], the target named is HA H1 A/New Caledonia/20/99 (Influenza A virus (A/New Caledonia/20/1999(H1N1)), UniProt Q6WG00). The experiment in a line: biochemical. The following applies: Competition binding (AlphaLISA), pIC50 H1 A/New Caledonia/20/99. (In Alpha technology, singlet oxygen from a donor bead excites a nearby acceptor bead.)
Data set [3] has as its target HA H5 A/Vietnam/1203/04 (Influenza A virus (A/Vietnam/1203/2004(H5N1)), UniProt Q5EP31). The experiment in a line: biochemical. The following applies: Competition binding (AlphaLISA), pIC50 H5 A/Vietnam/1203/04.
The next data set has as its system H1N1 A/California/07/09. The data set can be described thus: microbe, parasite or virus in culture. Conditions: Influenza A virus, H1N1, MDCK, 96 h, read-out: Virus neutralization assay (VNA), pEC50 H1N1 A/California/07/09 (converted). It counts as cell-based, influenza A virus.
For data set [4], the system named is H1N1 A/New Caledonia/20/99. The data set can be described thus: microbe, parasite or virus in culture. It counts as cell-based, influenza A virus. Conditions: Influenza A virus, H1N1, MDCK, 96 h, read-out: Virus neutralization assay (VNA), pEC50 H1N1 A/New Caledonia/20/99 (converted).
The test system of the next data set is H5N1 A/Vietnam/1203/04. The experiment in a line: microbe, parasite or virus in culture. The format is cell-based, influenza A virus. Conditions: Influenza A virus, H5N1, MDCK, 96 h, read-out: Virus neutralization assay (VNA), pEC50 H5N1 A/Vietnam/1203/04, MDCK cells, 96 h, CPE by ATPlite (converted); average of repeats.
Another data set is described as follows: in vitro. The following applies: dog, Cytotoxicity (pCC50) MDCK.

In the case of `Cc1nnc(C(c2ccccc2)N2CCN(C(=O)c3cccc(-c4nc5cc(O)ccc5o4)c3)CC2)o1` (stereo not shown) [Example 44], the IC50 in data set [1] was 50.1 nM; in data set [2], 50.1 nM; in data set [3], 1580 nM. The EC50 was 398 nM in the data set with H1N1 A/California/07/09, 316 nM in data set [4] and 12600 nM in the data set on H5N1 A/Vietnam/1203/04. The same compound gave a CC50 in the data set “in vitro” of 39800 nM.
On to `Cc1nnc([C@@H](c2ccccc2)N2CCN(C(=O)c3cc(-c4nc5cc(C(F)(F)F)ccc5o4)ccc3F)CC2)o1` [Example 45], for which the IC50 in data set [1] is 63.1 nM; in data set [2], 100 nM; in data set [3], 7940 nM. The EC50 in the data set with H1N1 A/California/07/09 was 251 nM; in data set [4], 316 nM; in the data set with H5N1 A/Vietnam/1203/04, 50100 nM. This compound also gave a half-maximal cytotoxic concentration (CC50) in the data set “in vitro” of more than 50100 nM.
As to `COC(=O)[C@H](c1ccccc1)N1CCN(C(=O)c2cccc(-c3nc4cc(C(F)(F)F)ccc4o3)c2)[C@H](C(N)=O)C1` [Example 46], the half-maximal inhibitory concentration (IC50) was 31.6 nM in data set [1], 31.6 nM in data set [2] and 794 nM in data set [3]. Also, the values for the EC50 (with H1N1 A/California/07/09; in data set [4]; in the data set with H5N1 A/Vietnam/1203/04) were 200 nM, 158 nM and 15800 nM, respectively. In “in vitro”, this compound gave a 50% cytotoxic concentration (CC50) of 39800 nM.
For the compound `Cc1nnc(C(c2ccccc2)N2CCN(C(=O)c3cccc(-c4nc5cc(F)ccc5o4)c3)CC2)o1` (stereo not shown) [Example 47], the results for the IC50 in data set [1], in data set [2] and in data set [3] were 79.4 nM, 79.4 nM and 10000 nM, respectively. In addition, the EC50 is 398 nM in the data set with H1N1 A/California/07/09, 316 nM in data set [4] and 15800 nM in the data set on H5N1 A/Vietnam/1203/04. Moreover, in the data set “in vitro”, it took 31600 nM to reach half-maximal cytotoxicity (CC50).
`Cc1nnc(C(c2ccccc2)N2CCN(C(=O)c3cc(-c4nc5cc(OC(F)(F)F)ccc5o4)ccn3)CC2)s1` (stereo not shown) [Example 49]: the values for the half-maximal inhibitory concentration (IC50) in data set [1], in data set [2] and in data set [3] were 251 nM, 200 nM and 3980 nM, respectively. Besides, the EC50 in the data set with H1N1 A/California/07/09 was 501 nM; in data set [4] it was 316 nM; in the data set on H5N1 A/Vietnam/1203/04 it was 31600 nM. The compound further showed a 50% cytotoxic concentration (CC50) in the data set “in vitro” of 15800 nM.
Turning to `COC(=O)C(c1ccccc1)N1CCN(C(=O)c2cccc(-c3nc4cccnc4o3)c2)CC1` (stereo not shown) [Example 50], the values for the IC50 in data set [1], in data set [2] and in data set [3] were 63.1 nM, 63.1 nM and 3980 nM, respectively. The EC50 was 794 nM with H1N1 A/California/07/09, 316 nM in data set [4] and 31600 nM with H5N1 A/Vietnam/1203/04. Besides, in the data set “in vitro”, the half-maximal cytotoxic concentration (CC50) was more than 50100 nM.
`CC(=O)Nc1ccc2oc(-c3cccc(C(=O)N4CCN(C(c5ccccc5)c5nnc(C)o5)CC4)c3)nc2c1` (stereo not shown) [Example 51]: the figures for the IC50 in data set [1], in data set [2] and in data set [3] were 15.8 nM, 12.6 nM and 631 nM, respectively. The results for the EC50 (in the data set with H1N1 A/California/07/09; in data set [4]; with H5N1 A/Vietnam/1203/04) were 251 nM, 251 nM and 15800 nM, respectively. The same compound had a CC50 in the data set “in vitro” of 50100 nM.
For `Cn1ccc(C(c2ccccc2)N2CCN(C(=O)c3cccc(-c4nc5cc(C(F)(F)F)ccc5o4)c3)CC2)n1` (stereo not shown) [Example 53], the half-inhibitory concentration (IC50) in data set [1] was 5010 nM; in data set [2], 3980 nM; in data set [3] it was 20000 nM. The EC50 with H1N1 A/California/07/09 is 1000 nM; in data set [4] it was 398 nM; in the data set on H5N1 A/Vietnam/1203/04, more than 50100 nM. Further, the CC50 in “in vitro” is more than 50100 nM.
Consider `COC(=O)C(c1ccccc1)N1CCN(C(=O)c2cncc(-c3nc4ccc(OC)cc4s3)c2)CC1` (stereo not shown) [Example 54], for which the IC50 in data set [1] was 100 nM; in data set [2], 50.1 nM; in data set [3], 398 nM. Further, the EC50 in the data set on H1N1 A/California/07/09 is 1260 nM; in data set [4], 398 nM; with H5N1 A/Vietnam/1203/04, 6310 nM. In addition, the CC50 in “in vitro” is 50100 nM.
Consider `COc1ccc2nc(-c3cccc(C(=O)N4CCN(C(C(=O)NCCCN)c5ccccc5)CC4)c3)sc2c1` (stereo not shown) [Example 55], for which the values for the IC50 in data set [1], in data set [2] and in data set [3] were 63.1 nM, 50.1 nM and 631 nM, respectively. The EC50 was 2000 nM with H1N1 A/California/07/09, 398 nM in data set [4] and 10000 nM in the data set with H5N1 A/Vietnam/1203/04. In “in vitro”, this compound gave a CC50 of more than 50100 nM.
Regarding `COc1ccc2nc(-c3cccc(C(=O)N4CCN(C(c5ccccc5)c5nncs5)CC4)c3)sc2c1` (stereo not shown) [Example 56], the IC50 in data set [1] was 398 nM; in data set [2], 158 nM; in data set [3], 3160 nM. Moreover, the EC50 with H1N1 A/California/07/09 was 5010 nM; in data set [4], 398 nM; in the data set with H5N1 A/Vietnam/1203/04 it was more than 50100 nM. The same compound displayed a CC50 in “in vitro” of more than 50100 nM.
On to `O=C(c1cccc(-c2nc3cc(C(F)(F)F)ccc3o2)c1)N1CCN(C(c2ccccc2)c2nnc(C3(O)CCC3)o2)CC1` (stereo not shown) [Example 57], for which the figures for the IC50 in data set [1], in data set [2] and in data set [3] were 50.1 nM, 79.4 nM and 2510 nM, respectively. For the same compound, the EC50 was 251 nM with H1N1 A/California/07/09, 501 nM in data set [4] and 20000 nM in the data set with H5N1 A/Vietnam/1203/04. The compound also gave a 50% cytotoxic concentration (CC50) in “in vitro” of 39800 nM.
On to `COC(=O)[C@@H](c1ccccc1)N1CCN(C(=O)c2cccc(-c3nc4cc(C(F)(F)F)ccc4o3)c2)[C@@H](CC(N)=O)C1` [Example 58], for which the half-inhibitory concentration (IC50) is 39.8 nM in data set [1], 31.6 nM in data set [2] and 1000 nM in data set [3]. In addition, the values for the EC50 (in the data set with H1N1 A/California/07/09; in data set [4]; with H5N1 A/Vietnam/1203/04) were 398 nM, 398 nM and 5010 nM, respectively. Moreover, in “in vitro”, the CC50 was 39800 nM.
For the compound `COC(=O)C(c1ccccc1)N1CCN(C(=O)c2cccc(-c3nc4cc(Cl)ccc4o3)c2)CC1` (stereo not shown) [Example 59], the figures for the IC50 in data set [1], in data set [2] and in data set [3] were 63.1 nM, 63.1 nM and 2000 nM, respectively. In addition, the figures for the EC50 (with H1N1 A/California/07/09; in data set [4]; in the data set with H5N1 A/Vietnam/1203/04) were 398 nM, 501 nM and 20000 nM, respectively. The compound also came in with a CC50 in “in vitro” of more than 50100 nM.
For the compound `COC(=O)C(c1ccccc1)N1CCN(C(=O)c2cccc(-c3nc4ccc(OC)cc4o3)c2)CC1` (stereo not shown) [Example 60], the results for the concentration for half-maximal inhibition (IC50) in data set [1], in data set [2] and in data set [3] were 63.1 nM, 39.8 nM and 1580 nM, respectively. Moreover, the figures for the EC50 (with H1N1 A/California/07/09; in data set [4]; in the data set with H5N1 A/Vietnam/1203/04) were 631 nM, 501 nM and 12600 nM, respectively. The compound also had a 50% cytotoxic concentration (CC50) in the data set “in vitro” of 25100 nM.
Turning to `COc1ccc2nc(-c3cccc(C(=O)N4CCN([C@H](c5ccccc5)c5nnn(C)n5)CC4)c3)sc2c1` [Example 61], the half-inhibitory concentration (IC50) in data set [1] was 79.4 nM; in data set [2], 63.1 nM; in data set [3] it was 501 nM. Besides, the EC50 was 631 nM with H1N1 A/California/07/09, 501 nM in data set [4] and 2000 nM with H5N1 A/Vietnam/1203/04. Besides, in “in vitro”, the midpoint of cytotoxicity, the CC50, lay at 39800 nM.
With `COC(=O)[C@H](c1ccccc1)N1CCN(C(=O)c2cccc(-c3nc4cc(C(F)(F)F)ccc4o3)c2)[C@@H](C(N)=O)C1` [Example 62], the IC50 is 100 nM in data set [1], 100 nM in data set [2] and 3160 nM in data set [3]. Also, the EC50 was 631 nM in the data set with H1N1 A/California/07/09, 631 nM in data set [4] and 20000 nM in the data set on H5N1 A/Vietnam/1203/04. Also, in “in vitro”, it took 39800 nM to reach half-maximal cytotoxicity (CC50).
On to `Cc1nnc([C@@H](c2ccccc2)N2CCN(C(=O)c3cc(F)cc(-c4nc5cc(C(F)(F)F)ccc5o4)c3)CC2)o1` [Example 63], for which the IC50 in data set [1] is 158 nM; in data set [2], 158 nM; in data set [3], 15800 nM. Further, the results for the EC50 (with H1N1 A/California/07/09; in data set [4]; in the data set with H5N1 A/Vietnam/1203/04) were 631 nM, 501 nM and more than 50100 nM, respectively. In addition, the 50% cytotoxic concentration (CC50) in the data set “in vitro” is more than 50100 nM.
`CNC(=O)c1cnc(-c2cccc(C(=O)N3CCN(C(C(=O)OC)c4ccccc4)CC3)c2)s1` (stereo not shown) [Example 64]: the 50% inhibitory concentration (IC50) in data set [1] is 79.4 nM; in data set [2], 79.4 nM; in data set [3], 2000 nM. Besides, the EC50 in the data set on H1N1 A/California/07/09 was 1000 nM; in data set [4], 501 nM; with H5N1 A/Vietnam/1203/04 it was 25100 nM. The cytotoxic concentration (CC50) in the data set “in vitro” is more than 50100 nM.
